Data reported in patent US20090298708A1, “2'-DEOXY-2'-FLUORO-BETA-D-ARABINONUCLEOSIDE 5'-TRIPHOSPHATES AND THEIR USE IN ENZYMATIC NUCLEIC ACID SYNTHESIS” (priority 2006, published 2009).
Where two headings read alike, the source gives them in different places. Marks after values point to notes of the source that are not given here.

How the values were obtained:
Set-up in all cases: key: ++++: excellent (no pausing observed); +++: very good (with slight pausing); ++: Good, full-length products with significant pausing; +: significant pausing, no full-length product but at least one 2′F-araN incorporation detected
[1] = biological target: T1, Bst DNA polymerase large fragment (Bst) (Geobacillus stearothermophilus, UniProt P52026); test: Primer extension assay with Bst DNA polymerase large fragment; assay type: biochemical; settings: for Incorporation of three 2′F-araTTP / 2′F-araCTP (incorporation efficiency): DNA template PF22 (2′F-araTTP) or PF24 (2′F-araCTP); for Enzymatic activity during primer extension reactions: plus dATP, dGTP
T1 construct: consists of the portion of the Bacillus stearothemmophilus DNA polymerase protein responsible for 5′->3′ polymerase activity but lacks the 5′->3′ exonuclease domain; purchased New England Biolabs
T1 sequence (P52026 289-876 limits assumed): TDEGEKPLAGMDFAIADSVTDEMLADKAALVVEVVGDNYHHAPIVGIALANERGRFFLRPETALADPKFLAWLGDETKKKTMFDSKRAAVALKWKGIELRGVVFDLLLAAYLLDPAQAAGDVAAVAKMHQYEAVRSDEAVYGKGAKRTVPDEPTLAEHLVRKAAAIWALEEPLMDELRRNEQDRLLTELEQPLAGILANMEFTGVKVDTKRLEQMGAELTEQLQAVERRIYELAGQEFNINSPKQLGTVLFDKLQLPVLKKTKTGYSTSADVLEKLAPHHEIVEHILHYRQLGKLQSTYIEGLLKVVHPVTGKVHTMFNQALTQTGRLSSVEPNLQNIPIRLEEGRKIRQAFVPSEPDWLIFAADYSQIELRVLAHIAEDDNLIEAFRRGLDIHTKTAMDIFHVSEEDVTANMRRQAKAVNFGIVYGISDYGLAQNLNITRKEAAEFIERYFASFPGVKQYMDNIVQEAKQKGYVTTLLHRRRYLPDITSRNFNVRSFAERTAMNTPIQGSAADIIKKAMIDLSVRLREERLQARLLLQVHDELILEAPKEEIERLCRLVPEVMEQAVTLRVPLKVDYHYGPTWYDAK
Description: (§1) Various different types of DNA polymerases were assessed, including the mesophilic enzyme Klenow fragment of DNA pol I (3′→5′ exo-) (“Kf”); the thermophilic DNA polymerases DV, 9N, Taq, Bst pol I, Th and Ph; and the viral reverse transcriptases HIV RT and MMLV. Kf is a genetically engineered proteolytic product of E. coli pol A gene that encodes DNA polymerase I which retains polymerase activity but has a mutation which abolishes the 3′->5′ and 5′->3′ exonuclease activities. DV is a genetically engineered DNA polymerase purified from a strain of E. coli that carries the DV DNA polymerase gene from Pyrococcus species GB-D. The gene has been engineered to eliminate 3′->5′ proofreading exonuclease activity. 9N is a genetically engineered DNA polymerase that has decreased 3′->5′ proofreading exonuclease activity. 9N is purified from a strain of E. coli that carries a modified 9° N DNA polymerase gene from Thermococcus species (strain 9° N-7). […] Taq polymerase is isolated from E. coli engineered to express Taq polymerase from Thermus aquaticus YT-1. Bst DNA polymerase (Large fragment) is a genetically engineered polymerase that consists of the portion of the Bacillus stearothemmophilus DNA polymerase protein responsible for 5′->3′ polymerase activity but lacks the 5′->3′ exonuclease domain. Th DNA polymerase is a genetically engineered, archaeon-derived DNA polymerase that is a variant of the 9N polymerase described above. The recombinant protein is isolated from E. coli engineered to express 9° NA485L (exo-) DNA polymerase gene, a genetic variant of the native DNA polymerase from Thermococcus species 9° N-7. Ph is a recombinant DNA polymerase that consists of a novel Pyrococcus-like enzyme fused with a double-strand DNA-binding and processivity-enhancing domain.
(§2) Primer extension assays were used to assess the incorporation of 2′F-araNTP on the various DNA templates (Table 1). The DNA primer (PF20) was first radioactively labeled at the 5′-hydroxyl terminus with a radioactive phosphorus probe and the enzyme T4 polynucleotide kinase (T4 PNK) (see Example 1 for General Methods). To assess the incorporation of 2′F-araNTPs, the primer and template were annealed, and the nucleoside 5′-triphosphates added in the presence of enzyme under the conditions specified in Table 2. Time points were obtained by analyzing small aliquots from the reaction mixture through polyacryamide gel electrophoresis (PAGE) and autoradiography.
(§3) Unless otherwise noticed in the Examples described below, the conditions used in the primer extension assays, such as dNTP concentration, reaction temperatures, concentration of Mg^2+, and reaction buffers (provided by the manufacturers, except for the HIV buffer which was prepared in-house) are shown in Table 2.
Primer extension assays were used to assess the incorporation of 2′F-araTTP on the DNA template (PF22). The DNA primer (PF20) was first radioactively labeled at the 5′-hydroxyl terminus with a radioactive phosphorus probe and the enzyme T4 polynucleotide kinase (T4 PNK) according to the manufacturer's specifications (MBI Fermentas Life Sciences, Burlington, ON). Incorporation of the ^32P label was accomplished in reaction mixtures consisting of DNA substrate (200 pmol), 2 μl loxreaction buffer (Buffer A for forward reaction: 500 mM Tris-HCl, pH 7.6 at 25° C., 100 mM MgCl2, 50 mM DTT, 1 mM spermidine and 1 mM EDTA), 1 μl T4 PNK enzyme solution (10 U/1 μl in a solution of 20 mM Tris-HCl, pH 7.5, 25 mM KCl, 0.1 mM EDTA, 2 mM DTT and 50% glycerol), 6 μl [γ-^32P]-ATP solution (6000 Ci/mmol, 10 mCi/ml; Amersham Biosciences, Inc.) and autoclaved sterile water to a final volume of 20 μl. The reaction mixture was incubated for about 45-60 min at 37° C., followed by a second incubation for 10 min at 95° C. to heat denature and deactivate the kinase enzyme.

Taq DNA polymerase (Taq) = biological target: T2, Taq DNA polymerase (Taq) (Thermus aquaticus, UniProt P19821); test: Primer extension assay with Taq DNA polymerase; assay type: biochemical, Thermus aquaticus YT-1; settings: for Incorporation of three 2′F-araTTP / 2′F-araCTP (incorporation efficiency): DNA template PF22 (2′F-araTTP) or PF24 (2′F-araCTP); for Enzymatic activity during primer extension reactions: plus dATP, dGTP
T2 construct: purchased New England Biolabs; host or cells: E. coli
Description: as §1, §2, §3
Primer extension assays were used to assess the incorporation of 2′F-araTTP on the DNA template (PF22). The DNA primer (PF20) was first radioactively labeled at the 5′-hydroxyl terminus with a radioactive phosphorus probe and the enzyme T4 polynucleotide kinase (T4 PNK) according to the manufacturer's specifications (MBI Fermentas Life Sciences, Burlington, ON). […]

[2] = tested on: Phusion™ High-Fidelity DNA polymerase (Ph); test: Primer extension assay with Phusion High-Fidelity DNA polymerase; assay type: biochemical; settings: 55° C.; for Incorporation of three 2′F-araTTP / 2′F-araCTP (incorporation efficiency): DNA template PF22 (2′F-araTTP) or PF24 (2′F-araCTP); for Enzymatic activity during primer extension reactions: plus dATP, dGTP
Description: as §1, §2
as §3, with “2. […]” for “2.”

[3] = biological target: T3, Klenow fragment DNA polymerase (3′→ 5′ exo-) (Kf) (Escherichia coli, UniProt P00582, D355A/E357A); assay type: biochemical, E. coli; settings: 37° C.; for Incorporation of three 2′F-araTTP / 2′F-araCTP (incorporation efficiency): DNA template PF22 (2′F-araTTP) or PF24 (2′F-araCTP); for Enzymatic activity during primer extension reactions: plus dATP, dGTP
T3 construct: the mesophilic enzyme Klenow fragment of DNA pol I (3′→5′ exo-) (“Kf”); purchased New England Biolabs
Description: as §1, §2
as §3, with “2. […]” for “2.”

[4] = Example 3, DNA template PF24, 3x 2′F-araCTP, dTTP, 55° C.
[5] = Example 3, DNA template PF24, 3x 2′F-araCTP, dTTP
[6] = Example 2, DNA template PF22, 3x 2′F-araTTP, dCTP

T3 sequence (P00582 324-928 D355A/E357A): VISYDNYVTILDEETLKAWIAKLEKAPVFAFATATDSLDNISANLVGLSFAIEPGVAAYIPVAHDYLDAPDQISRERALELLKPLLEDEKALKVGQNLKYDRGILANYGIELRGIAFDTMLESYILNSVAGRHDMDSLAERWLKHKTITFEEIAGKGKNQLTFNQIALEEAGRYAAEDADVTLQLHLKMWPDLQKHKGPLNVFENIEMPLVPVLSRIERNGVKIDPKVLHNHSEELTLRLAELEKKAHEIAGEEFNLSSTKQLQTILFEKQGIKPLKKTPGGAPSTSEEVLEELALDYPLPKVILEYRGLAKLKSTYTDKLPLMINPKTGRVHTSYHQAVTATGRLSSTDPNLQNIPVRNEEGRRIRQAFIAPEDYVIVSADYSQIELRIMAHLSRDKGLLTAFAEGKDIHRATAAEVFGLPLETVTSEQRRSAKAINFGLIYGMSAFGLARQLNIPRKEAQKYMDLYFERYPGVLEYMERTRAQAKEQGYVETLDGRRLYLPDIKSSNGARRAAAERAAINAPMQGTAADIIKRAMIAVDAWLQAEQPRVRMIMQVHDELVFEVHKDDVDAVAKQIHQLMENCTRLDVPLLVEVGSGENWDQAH
T2 sequence (P19821 whole entry): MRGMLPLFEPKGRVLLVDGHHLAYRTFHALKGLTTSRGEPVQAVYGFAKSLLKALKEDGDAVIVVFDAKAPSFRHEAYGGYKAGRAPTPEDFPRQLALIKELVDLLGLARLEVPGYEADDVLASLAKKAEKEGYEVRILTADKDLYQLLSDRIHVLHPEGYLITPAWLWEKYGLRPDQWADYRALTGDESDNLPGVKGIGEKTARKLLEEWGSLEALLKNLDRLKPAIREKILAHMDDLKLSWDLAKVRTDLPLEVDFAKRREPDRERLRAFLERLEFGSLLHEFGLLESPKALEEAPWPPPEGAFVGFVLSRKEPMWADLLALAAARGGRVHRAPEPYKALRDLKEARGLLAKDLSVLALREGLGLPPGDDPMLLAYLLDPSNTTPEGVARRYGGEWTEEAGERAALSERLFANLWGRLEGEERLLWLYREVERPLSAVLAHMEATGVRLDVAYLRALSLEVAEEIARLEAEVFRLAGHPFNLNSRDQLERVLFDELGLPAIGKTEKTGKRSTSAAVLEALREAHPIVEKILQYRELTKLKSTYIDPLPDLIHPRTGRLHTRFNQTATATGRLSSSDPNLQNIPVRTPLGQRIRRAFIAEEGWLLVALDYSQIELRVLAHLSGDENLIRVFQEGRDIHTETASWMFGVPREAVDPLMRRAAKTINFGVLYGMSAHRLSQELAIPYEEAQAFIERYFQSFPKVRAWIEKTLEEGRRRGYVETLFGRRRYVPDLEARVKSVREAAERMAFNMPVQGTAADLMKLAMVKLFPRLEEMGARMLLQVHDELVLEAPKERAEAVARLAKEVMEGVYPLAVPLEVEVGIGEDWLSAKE

| SMILES | Incorporation of three 2′F-araTTP / 2′F-araCTP (incorporation efficiency) ([1]; 37° C.) | Incorporation of three 2′F-araTTP / 2′F-araCTP (incorporation efficiency) ([1]; 55° C.) | Enzymatic activity during primer extension reactions [1, 4] | Incorporation of three 2′F-araTTP / 2′F-araCTP (incorporation efficiency) (Taq DNA polymerase (Taq); 37° C.) | Incorporation of three 2′F-araTTP / 2′F-araCTP (incorporation efficiency) (Taq DNA polymerase (Taq); 55° C.) | Enzymatic activity during primer extension reactions (Taq DNA polymerase (Taq); [4]) | Incorporation of three 2′F-araTTP / 2′F-araCTP (incorporation efficiency) [2] | Enzymatic activity during primer extension reactions [2, 5] | Incorporation of three 2′F-araTTP / 2′F-araCTP (incorporation efficiency) [3] | Enzymatic activity during primer extension reactions [3, 5] | Enzymatic activity during primer extension reactions ([1]; Example 2, DNA template PF22, 3x 2′F-araTTP, dCTP, 55° C.) | Enzymatic activity during primer extension reactions (Taq DNA polymerase (Taq); Example 2, DNA template PF22, 3x 2′F-araTTP, dCTP, at 37° C.) | Enzymatic activity during primer extension reactions [2, 6] | Enzymatic activity during primer extension reactions [3, 6] |
| --- | --- | --- | --- | --- | --- | --- | --- | --- | --- | --- | --- | --- | --- | --- |
| Nc1ccn([C@@H]2O[C@H](COP(=O)(O)OP(=O)(O)OP(=O)(O)O)[C@@H](O)[C@@H]2F)c(=O)n1 [2′F-araCTP, 1-(2-deoxy-2-fluoro-β-D-arabinofuranosyl)cytosine 5′-triphosphate] | None | ++++ | ++++ | ++ | ++++ | ++++ | ++++ | ++++ | ++ | ++ |  |  |  |  |
| Cc1cn([C@@H]2O[C@H](COP(=O)(O)OP(=O)(O)OP(=O)(O)O)[C@@H](O)[C@@H]2F)c(=O)[nH]c1=O [2′F-araTTP, 1-(2-deoxy-2-fluoro-β-D-arabino-furanosyl)thymine 5′-triphosphate] | ++ | +++ |  | ++ |  |  | ++++ |  | ++ |  | +++ | ++^b | ++++ | ++ |
